The values below come from patent US7875599B2, “C-17-heteroaryl steroidal CYP17 inhibitors/antiandrogens, in vitro biological activities, pharmacokinetics and antitumor activity” (University of Maryland, priority 2005, dated 2011).

Series [1] addresses T1, CYP17 (Homo sapiens, UniProt P05093).
T1 sequence (P05093 1-508): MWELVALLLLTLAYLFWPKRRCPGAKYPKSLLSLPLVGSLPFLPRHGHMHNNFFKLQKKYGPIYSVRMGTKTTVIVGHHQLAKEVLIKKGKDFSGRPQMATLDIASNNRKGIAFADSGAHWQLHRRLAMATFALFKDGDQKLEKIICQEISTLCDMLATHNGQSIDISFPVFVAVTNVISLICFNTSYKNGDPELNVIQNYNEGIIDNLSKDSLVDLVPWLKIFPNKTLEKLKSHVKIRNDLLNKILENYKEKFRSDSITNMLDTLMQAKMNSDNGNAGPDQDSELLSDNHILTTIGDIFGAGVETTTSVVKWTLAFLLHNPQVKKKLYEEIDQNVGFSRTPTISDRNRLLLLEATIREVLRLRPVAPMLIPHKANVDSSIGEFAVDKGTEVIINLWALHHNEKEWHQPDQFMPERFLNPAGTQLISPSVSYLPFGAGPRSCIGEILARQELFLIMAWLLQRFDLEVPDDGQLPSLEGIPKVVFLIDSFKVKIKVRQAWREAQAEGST
Nature of the series: CYP17 inhibition, acetic acid releasing assay with intact P450c17-expressing E. coli.

Series [2] relates to LNCaP mutant AR-mediated transcription. Briefly: Luciferase transactivation assay in LNCaP cells transfected with ARR2-Luc. As to conditions: 18 h.
Procedure: Luciferase Transactivation Assay: Transcriptional activation assay is carried out as described previously by Kim et al., above, with minor modifications. […] The pRL-null (Promega) is used as the internal control. […] Luciferase activities are measured in triplicates by using dual luciferase assay system according to the manufacturer's instruction (Promega).
The bars represent the mean light units [counts per second (cps)/unit protein, i.e., relative luciferase activity] in triplicate wells from three separate experiments.
The subject of series [3] is LAPC4 cells. Nature of the series: LAPC4 cell growth, WST-1 viability assay.
Procedure: (§1) To determine the effect of novel compounds on cell proliferation, cells are transferred into steroid-free medium three days prior to the start of the experiments. Steroid-free medium consisted of phenol red free RPMI supplemented with 5% dextran-coated, charcoal treated serum, and 1% penicillin/streptomycin solution. Growth studies are then performed by plating cells (3×10^4) in 24-well multi-well dishes (Corning, Inc. Corning, N.Y.). After a 24 hours attachment period, the medium is aspirated and replaced with steroid-free medium containing vehicle or the indicated concentration of DHT (1 nM) and compounds (0.1 μM-10 μM). Control wells are treated with vehicle (ethanol). This medium is changed every three days and the number of viable cells is compared by WST-1 [4-[3-(4-iodophenyl)-2-(4-nitrophenyl)-2H-5-tetrazolio]-1,3-benzene disulfonate] assay on the seventh day. Following incubation of cells for the above-mentioned time, 10% WST-1 solution is added to each well and incubated at 37° C. for three hours. Following incubation, plates are slightly shaken and immediately read at 450 nm with a scanning multi-well spectrophotometer. All results represent the average of a minimum of three wells. Additional control consists of medium alone with no cells.
(§2) Cells were grown in steroid-free medium before plating.
Series [4] deals with LNCaP cells. Nature of the series: LNCaP cell growth, WST-1 viability assay. (In general: Formazan colour is commonly taken as a measure of viable cells.)
Procedure: as §1, §2
For series [5], the system named is LAPC4 human prostate tumor xenograft. Briefly: LAPC4 xenograft, second experiment (treatment from day after inoculation). Type of series: in vivo, mouse. From the text: The second in vivo experiment tests the ability of 5 to inhibit the growth of LAPC4 prostate cancer cells growing in SCID mice, and 16 (Chart 1), a previously identified potent CYP17 inhibitor/antiandrogen (Gregoriyev et al. and Njar et al., J. Med. Chem., 1998, 41, 902-912, above) and castration are used as reference treatments. In this experiment, treatment begins on the day that mice were inoculated subcutaneously with hormone-dependent LAPC4 cells and are castrated or injected sc twice daily with 5 or 16.
In Vivo Antitumor Studies (LAPC-4 Prostate Cancer Xenografts): All animal studies are performed according to the guidelines and approval of the Animal Care Committee of the University of Maryland School of Medicine, Baltimore. Male severe combined immunodeficient (SCID) mice 4-6 weeks of age purchased from the National Cancer Institute-Frederick Cancer Research and Development Center (Fredrick, Md.) are housed in a pathogen-free environment under controlled conditions of light and humidity and allowed free access to food and water. Tumors are developed from LAPC4 cells inoculated subcutaneously (s.c.) in the mice essentially as previously described (21). LAPC4 cells are grown in IMEM with 15% FBS plus 1% PS and 10 nm DHT until 80% confluent. Cells are scraped into DPBS, collected by centrifugation, and resuspended in Matrigel (10 mg/ml) at 3×10^7 cells/ml. Mice are injected s.c. with 100 μl of the cell suspension at one site on each flank. Tumors are measured weekly with calipers, and tumor volumes are calculated by the formula: […]).
In the second experiment, mice are inoculated with LAPC4 cells and are divided into four groups of 5 mice each. The control and castrated group receiv vehicle, while the other two groups receiv either VN/85-1 (0.15 mmol/kg twice-daily, 9 a.m. and 5 p.m.) or 5 (0.15 mmol/kg twice-daily, 9 a.m. and 5 p.m.). These treatments are initiated one day after LAPC4 cell inoculation; continued for 14 weeks for control group, 19 weeks (for VN/85-1 and castration groups) and for 21 weeks for 5 treated group and tumors are measured and processed as described above.
FIG. 7: The effects of 5, 16, and orchidectomy on the formation and growth of LAPC4 prostate tumors in male SCID mice. 3×10^7 LAPC-4 cells were injected s.c. into the dorsal flank of SCID mice. One group of mice was castrated. The other groups of mice received either vehicle or 5 (0.15 mmol/kg twice-daily) or 16 (0.15 mmol/kg twice-daily). Daily treatment with 5 or 16 was initiated 1 day after cell inoculation. Tumors volumes were measured weekly, and the percentage of change in tumor volume was determined after 16 weeks of treatment * Indicates significant difference of 5 versus control, castration and 16 at week 14 (P 0.00065, 0.05 and 0.0097, respectively). ** Indicates significant difference of 5 versus castration and 16 at week 16 (P=0.047 and 0.0047, respectively). ↓-↓↓: Period of reduced administered dose of 5.

Series [6] addresses T2, human 5α-reductase type 2 (Homo sapiens, UniProt P31213).
T2 sequence (P31213 1-254): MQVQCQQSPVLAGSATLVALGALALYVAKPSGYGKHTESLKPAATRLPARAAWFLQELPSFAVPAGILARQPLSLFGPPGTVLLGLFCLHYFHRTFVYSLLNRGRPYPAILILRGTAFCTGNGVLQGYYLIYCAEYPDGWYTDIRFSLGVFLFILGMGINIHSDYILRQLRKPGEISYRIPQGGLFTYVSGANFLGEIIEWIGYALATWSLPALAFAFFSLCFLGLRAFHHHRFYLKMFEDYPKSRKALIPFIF
Nature of the series: Human 5α-reductase type 2 assay (BPH tissue homogenate). As to conditions: for inhibition at 10 µM: read-out: 5α-Reductase type 2 % inhibition at 10 μM.

Series [7] deals with T1, CYP17. Briefly: UV-vis difference spectroscopy, binding to heme iron of CYP17. The arrangement: peak position of Soret maximum of the enzyme complex: unit not given here.
The target of series [8] is T3, human 5α-reductase type 1 (Homo sapiens, UniProt P18405).
T3 sequence (P18405 1-259): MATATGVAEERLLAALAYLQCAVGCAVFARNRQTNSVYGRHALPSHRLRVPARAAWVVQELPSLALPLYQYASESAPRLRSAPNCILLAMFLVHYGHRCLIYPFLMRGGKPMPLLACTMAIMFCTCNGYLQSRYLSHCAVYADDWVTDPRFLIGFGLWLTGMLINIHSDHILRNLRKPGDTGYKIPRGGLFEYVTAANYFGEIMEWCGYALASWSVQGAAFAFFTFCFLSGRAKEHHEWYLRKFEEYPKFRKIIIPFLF
Nature of the series: Human 5α-reductase type 1 assay (DU-145 cell line).

Setting [9] is: read-out: CYP17 IC50, intact P450c17-expressing E. coli, substrate [21-3H]-17α-hydroxypregnenolone.

SMILES strings stand for the structures. Like-named read-outs stand apart in the source and are kept apart here.

Consider `C[C@]12CC[C@H](O)CC1=CC[C@@H]1[C@@H]2CC[C@]2(C)C(c3cccnc3)=CC[C@@H]12` [Abiraterone, reference compound], for which, in series [1], the IC50 worked out at 800 nM.
`CC(O)(CS(=O)(=O)c1ccc(F)cc1)C(=O)Nc1ccc(C#N)c(C(F)(F)F)c1` (stereo not shown) [Casodex]: the “effect on luciferase activity, compound alone” value in series [2] (0.1 and 10.0 μM, without DHT) was “no effect”. In addition, the “effect on luciferase expression induced by 1.0 nM DHT” value in series [2] (with 1.0 nM DHT) was “decreased in a concentration-dependent manner”. Moreover, the IC50 in series [3] (Homo sapiens, LAPC4, 168 h, read-out: IC50, inhibition of LAPC4 cell proliferation, 10 nM DHT, 7 days, WST-1) was 10000 nM; in series [4] (Homo sapiens, LNCaP, 168 h, read-out: IC50, inhibition of DHT-induced LNCaP cell proliferation, 1 nM DHT, 7 days, WST-1), 8600 nM.
Consider `C[C@]12CC[C@H](O)CC1=CC[C@@H]1[C@@H]2CC[C@]2(C)C(n3ccnc3)=CC[C@@H]12` [VN/85-1, 3β-hydroxy-17-(1H-imidazole-1-yl)androsta-5,16-diene], for which the “times more potent than 5 in CYP17 inhibition” value in series [1] was 6 times. Also, in series [1] (setting [9]), the IC50 is 50 nM. Besides, the “week of therapy at which palpable and measurable tumors develop” value in series [5] (0.15 mmol/kg twice-daily) was 11 week. The “increase of tumor volume” value in series [5] (0.15 mmol/kg twice-daily s.c., week 14) is recorded as 3.7 fold. Moreover, the “reduction of tumor volume versus control mice” value in series [5] (0.15 mmol/kg twice-daily s.c., week 14 (b4 prints 50 mg/kg/twice daily)) worked out at 53.8%.
With `C[C@]12CC[C@H](O)CC1=CC[C@@H]1[C@@H]2CC[C@]2(C)C(c3cncnc3)=CC[C@@H]12` [Compound 15, 3β-Hydroxy-17-(5-pyrimidyl)-androsta-5,16-diene], the melting point (commonly the temperature of the solid-liquid transition) is 231 to 233 °C. The same molecule came in with an IC50 in series [1] of 500 nM.
`C[C@]12CC[C@H](O)CC1=CCC1C2CC[C@]2(C)C(n3nnc4ccccc43)=CCC12` (stereo partly drawn) [Compound 9, 3β-Hydroxy-17-(benzo-1H-1,2,3-triazol-1-yl)androsta-5,16-diene]: the melting point was 241 to 244 °C. The IC50 in series [1] (setting [9]) was found to be 1250 nM. Further, the inhibition – broadly, the drop in the measured response relative to a control, in per cent – at 10 µM in series [6] is 17%. For the same molecule, in series [7], the “peak position of Soret maximum of the enzyme complex” value was 426 and the “type of difference spectrum induced” value is “type II difference spectrum”. Also, in series [8] (10 μM, DU-145 cells, substrate 5 nM [1β-3H]androstenedione), the “5α-Reductase type 1 % inhibition at 10 μM” value is listed as “ni^f”.
Turning to `C[C@]12CCC(=O)C[C@@H]1CC[C@@H]1[C@@H]2CC[C@]2(C)[C@@H](O)CC[C@@H]12` [DHT, dihydrotestosterone], in [2] (1.0 nM), the “increase of luciferase expression” value is “approximately 99.6 fold”. In addition, the “induction of LAPC4 cell proliferation” value in series [3] (10 nM) is recorded as “does not significantly induce cell proliferation”. Besides, the “stimulation of LNCaP cell proliferation compared to vehicle-treated cells” value in series [4] (1 nM) is listed as “about 2 fold”.
For the molecule `C[C@]12CC[C@H](O)CC1=CCC1C2CC[C@]2(C)C(c3cnccn3)=CCC12` (stereo partly drawn) [Compound 14, 3β-Hydroxy-17-(2-pyrazyl)-androsta-5,16-diene], the IC50 in series [1] (setting [9]) amounted to 3810 nM.
As to `C[C@]12CCC(=O)C=C1CCC1C2CC[C@]2(C)C(n3nnc4ccccc43)=CCC12` (stereo partly shown) [Compound 10, 17-(benzo-1H-1,2,3-triazol-1-yl)androsta-4,16-diene-3-one], the melting point lay within 280 to 283 °C. Moreover, in [1] (setting [9]), the IC50 was determined as 5820 nM. Besides, in [6], the inhibition at 10 µM stood at 56%. Also, the inhibition at 10 µM in series [8] (read-out: 5α-Reductase type 1 % inhibition at 10 μM) is 21%.
In the case of `CC(C)(C)NC(=O)[C@H]1CC[C@H]2[C@@H]3CC[C@H]4NC(=O)C=C[C@]4(C)[C@H]3CC[C@]12C` [Finasteride, reference compound], the IC50 stood at 2 nM in series [6] (read-out: 5α-Reductase type 2 [IC50], BPH tissue enzyme, values in square brackets) and 60 nM in series [8] (read-out: 5α-Reductase type 1 [IC50], DU-145 cells, values in square brackets).
